Assay in all cases: relative viability (nuclei count vs DMSO), 5 days (fraction); higher = more cells survive
Compound in the assay “IMD-0354 + Pemetrexed”: O=C(Nc1cc(C(F)(F)F)cc(C(F)(F)F)c1)c1cc(Cl)ccc1O [IMD-0354] + Nc1nc2[nH]cc(CCc3ccc(C(=O)N[C@@H](CCC(=O)O)C(=O)O)cc3)c2c(=O)[nH]1 [Pemetrexed] (partner 0.2 µM)
Summed up: (§1)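 Relative viability equals treated-well nuclei counts divided by vehicle-well nuclei counts. Counts came from 4× images of lung cancer cell lines grown in 1536-well plates for 5 days after pin-tool dosing on the day after seeding. Dosing used one drug alone or a fixed anchor-drug dose plus five library-drug doses (not always all listed) in √10 steps, and values are medians of duplicate plates.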

Compound in the assay “CX-5461 + Trametinib”: Cc1cnc(CNC(=O)c2c(=O)c3ccc(N4CCCN(C)CC4)nc3n3c2sc2ccccc23)cn1 [CX-5461] + CC(=O)Nc1cccc(-n2c(=O)n(C3CC3)c(=O)c3c(Nc4ccc(I)cc4F)n(C)c(=O)c(C)c32)c1 [Trametinib] (partner 0.02 µM)
In outline:
as §1

Compound in the assay “IMD-0354 + Bortezomib”: O=C(Nc1cc(C(F)(F)F)cc(C(F)(F)F)c1)c1cc(Cl)ccc1O [IMD-0354] + CC(C)C[C@H](NC(=O)[C@H](Cc1ccccc1)NC(=O)c1cnccn1)B(O)O [Bortezomib] (partner 0.002 µM)
Summed up: as §1

Compound in the assay “IMD-0354 + Luminespib”: O=C(Nc1cc(C(F)(F)F)cc(C(F)(F)F)c1)c1cc(Cl)ccc1O [IMD-0354] + CCNC(=O)c1noc(-c2cc(C(C)C)c(O)cc2O)c1-c1ccc(CN2CCOCC2)cc1 [Luminespib] (partner 0.01 µM)
In outline:
as §1

In the supplement of paper PMC10307832 one finds relative viability data, which are given here for 1 cell line.

In the case of UMC-11, the relative viability with IMD-0354 + Pemetrexed (first compound 0.04 µM) turned out to be 0.819; with IMD-0354 + Pemetrexed (first compound 0.1265 µM), 0.692; with IMD-0354 + Pemetrexed (first compound 0.4 µM), 0.281; in the assay with IMD-0354 + Pemetrexed (first compound 1.265 µM) it was 0.205; with IMD-0354 + Pemetrexed (first compound 4 µM), 0.219; with CX-5461 + Trametinib (first compound 0.01 µM), 0.685. Besides, the relative viability turned out to be 0.769 with CX-5461 + Trametinib (first compound 0.03162 µM); 0.762 with CX-5461 + Trametinib (first compound 0.1 µM); 0.317 with CX-5461 + Trametinib (first compound 0.3162 µM); 0.249 with CX-5461 + Trametinib (first compound 1 µM); 1.13 in the assay with IMD-0354 + Bortezomib (first compound 0.04 µM); 0.796 with IMD-0354 + Bortezomib (first compound 0.1265 µM). The relative viability with IMD-0354 + Bortezomib (first compound 0.4 µM) came out at 0.465; with IMD-0354 + Bortezomib (first compound 1.265 µM), 0.237; in the assay with IMD-0354 + Bortezomib (first compound 4 µM), 0.212; with IMD-0354 + Luminespib (first compound 0.04 µM) it was 1.1; with IMD-0354 + Luminespib (first compound 0.1265 µM), 0.888; in the assay with IMD-0354 + Luminespib (first compound 0.4 µM), 0.434. Also, the relative viability in the assay with IMD-0354 + Luminespib (first compound 1.265 µM) came out at 0.27; in the assay with IMD-0354 + Luminespib (first compound 4 µM), 0.273.
